Test results published in US4988692A, “2,4-dioxo-5-phenyl-2,3,4,5-tetrahydro-1H-1,5-benzodiazepines” (Uclaf; Roussel, priority 1985, dated 1991).

Legend:
Peripheral CCK receptors = target: T1, Peripheral CCK receptors (Rattus norvegicus, UniProt P30551); assay: Peripheral receptors: 3H CCK8 binding, rat pancreas homogenate
T1 construct: The pancreases of 3 male rats weighing 150-200 g were removed and ground up with Polytron; from tissue; host or cells: rat pancreas homogenate (30,000 g pellet)
T1 sequence (P30551 1-444): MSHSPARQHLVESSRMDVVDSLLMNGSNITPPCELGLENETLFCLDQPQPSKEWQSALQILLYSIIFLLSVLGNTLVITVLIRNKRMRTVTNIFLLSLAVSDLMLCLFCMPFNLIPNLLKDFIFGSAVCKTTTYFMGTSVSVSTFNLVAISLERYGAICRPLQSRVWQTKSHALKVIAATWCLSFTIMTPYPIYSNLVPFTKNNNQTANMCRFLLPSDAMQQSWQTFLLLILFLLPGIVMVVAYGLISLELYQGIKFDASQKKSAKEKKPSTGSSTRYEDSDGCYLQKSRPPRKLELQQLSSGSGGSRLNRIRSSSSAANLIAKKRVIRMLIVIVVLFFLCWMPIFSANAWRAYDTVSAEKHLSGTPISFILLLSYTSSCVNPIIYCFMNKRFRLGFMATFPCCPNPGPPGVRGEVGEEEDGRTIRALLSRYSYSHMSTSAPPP
Procedure: The pancreases of 3 male rats weighing 150-200 g were removed and ground up with Polytron (4 grindings, speed 3, with an interval of 10 seconds between the grindings) and the homogenate was filtered through a gauze and then centrifuged at 30,000 g for 30 minutes. The residues obtained were taken up in 400 volumes (600 ml) of Tris 50 mM HCl pH 7.4 buffer containing BSA 2 g/l., bacitracin 0.1 mM, MgCl2 5 mM, dithiothreitol 5 mM. 2 ml aliquots of the homogenate were incubated at 25° C. for 60 minutes in the presence of […] 3H CCK8 and of the test product (10,000 μM for 1 dose, or with one range of 7 doses) and of cold CCK8 (10^-6 M) which was the reference product. After returning to 0° C., the aliquots were filtered on Whatman GF/B filters, pre-washed in a solution of polyethylene imine at 0.05% and washed with 3×5 ml of buffer Tris HCl 50 mM, pH 7.4. The results were expressed in IC50, the concentration necessary to inhibit by 50% the fixed specific radioactivity, IC50 n mol

Central CCK receptors = target: T2, Central CCK receptors (Rattus norvegicus, UniProt P30553); assay: Central receptors: 3H CCK8 binding, rat cortex homogenate; details: 0.5 nM 3H CCK8, 25° C., 30 minutes
T2 construct: The cortices of 20 male rats weighing 150 to 200 g were removed, and were ground up with Polytron in sucrose; from tissue; host or cells: rat cerebral cortex homogenate (washed membrane pellet)
T2 sequence (P30553 1-452): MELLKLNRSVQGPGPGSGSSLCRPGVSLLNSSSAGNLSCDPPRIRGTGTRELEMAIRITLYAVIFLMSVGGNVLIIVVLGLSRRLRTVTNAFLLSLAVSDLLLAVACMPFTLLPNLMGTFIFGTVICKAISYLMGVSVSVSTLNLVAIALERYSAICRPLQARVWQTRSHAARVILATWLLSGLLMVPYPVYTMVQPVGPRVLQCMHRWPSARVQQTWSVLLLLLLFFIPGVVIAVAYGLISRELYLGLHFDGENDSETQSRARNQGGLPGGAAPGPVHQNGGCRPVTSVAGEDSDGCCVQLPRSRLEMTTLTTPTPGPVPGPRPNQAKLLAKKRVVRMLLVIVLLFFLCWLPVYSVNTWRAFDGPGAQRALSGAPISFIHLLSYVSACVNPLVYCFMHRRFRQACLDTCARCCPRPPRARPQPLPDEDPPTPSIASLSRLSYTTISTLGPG
Procedure: The cortices of 20 male rats weighing 150 to 200 g were removed, and were ground up with Polytron in sucrose 0.32M. After centrifuging, the supernatant was recovered and centrifuged. The residues were re-suspended in 120 ml of Hepes buffer pH 7.4 (Hepes 10 mM, NaCl 130 mM, MgCl2, 6H2 O 5 mM, bacitracin 250 mg/l., PMSF 1 mg/l), and re-centrifuged. The residues were taken up in 120 ml of Hepes buffer pH 7.4 and re-centrifuged at 30,000 g for 30 minutes. The residues thus obtained were taken up in 500 ml of Hepes buffer pH 7.4, which enabled 240 aliquots of 2 ml of homogenate to be obtained. The incubation was effected at 25° C. for 30 minutes in the presence of 0.5 nM of 3H CCK8 and the test product (10,000 μM for 1 dose, or with a range of 7 doses or of cold CCK8 (10^-6 M), which was the reference product). After returning the aliquots of the homogenate to 0° C., they were filtered on Whatman GF/B filters and the filters were washed with 3×5 ml of a Tris HCl 50 mM pH 7.4 buffer. The results are expressed is IC50 which is the concentration necessary to inhibit by 50% the fixed specific radioactivity.

food consumption = assay: Action on the alimentary intake in a rat; assay type: in vivo; details: 10 mg/kg intraperitoneal, consumption followed hourly for 5 hours
Procedure: The tests were carried out on groups of 5 rats weighing 250 g±10 g and the animals were individually placed in cages with a trough as described by Fregly (J. Appl. Physiol Vol. 15 (1960), p. 539) which avoided wasting of the powdered foodstuffs. The rats were accustomed to taking their daily portion over 5 consecutive hours with as much drinking water as desired being offered in glass feeding bottles. The quantities of food ingested were determined individually by the weight of the troughs and the comsumptions were followed hourly for 5 hours after intraperitoneal administration of 10 mg/kg of the compound. The quantities consumed are expressed in g/100 g of body weight per hour. The averages are compared to those obtained with control animals by a DUNNETT test.

[1] = test system: CCK8-induced contractions of isolated ileum; assay: Action on the isolated ileum of a guinea-pig (antagonism of CCK8 contractions); details: product 10^-7 M, one minute contact, CCK8 1.10^-8 M
Procedure: The test was carried out on fragments of ileum from male guinea-pigs placed under a tension of 1 g in a Krebs solution aerated with carbogen and maintained at 37° C. The contractions were recorded with a microdynamometer connected to a polygraph. The ileum was left at rest for 30 minutes and then CCK8 was added to the bath in a concentration of 1.10^-8 M, followed by rinsing. The test product was added to the bath, left in contact with the organ for one minute and then CCK8 (1.10^-8 M) was added to the bath. The possible antagonism was expressed by comparing the contractions caused by the CCK8 before and after contact with the product under test.

## CN1C(=O)C(NC(=O)c2cc3ccccc3[nH]2)C(=O)N(c2ccccc2)c2cc(Cl)ccc21 (stereo not drawn) [Example 1, N-(7-chloro-2,4-dioxo-1-methyl-5-phenyl-2,3,4,5-tetrahydro-1H-1,5-benzodiazepin-3-yl)-1H-indole-2-carboxamide]
Peripheral CCK receptors
  IC50: 20 nM
Central CCK receptors
  IC50: 2200 nM
Food consumption
  reduction of food consumption in relation to control animals (anorexigenic activity): more than 50%

## CN1C(=O)C(NC(=O)c2cc3ccccc3[nH]2)C(=O)N(c2ccccc2)c2ccccc21 (stereo not drawn) [Example 2]
Peripheral CCK receptors
  IC50: 14 nM
Central CCK receptors
  IC50: > 10000 nM
[1]
  antagonism of contractions caused by CCK8: significant antagonist activity
